Data reported in the NIST ThermoML archive (doi:10.1021/je800664z).
± gives the expanded uncertainty stated by the source.

Experiment: xn = mol fraction of the nth substance listed
Conditions: for surface tension liquid-gas: Capillary rise; for mass density / viscosity: 101 kPa, Liquid

C1COCO1 [1,3-dioxolane] + CC(C)O
Conditions	mass density, 288.15 K [kg/m3]	mass density, 298.15 K [kg/m3]	mass density, 308.15 K [kg/m3]	surface tension liquid-gas, 288.15 K [mN/m]	surface tension liquid-gas, 298.15 K [mN/m]	surface tension liquid-gas, 308.15 K [mN/m]	viscosity, 288.15 K [mPa·s]	viscosity, 298.15 K [mPa·s]	viscosity, 308.15 K [mPa·s]
x1 = 0.05	802.01 ± 0.47	793.33 ± 0.48	784.33 ± 0.49	21.98 ± 0.13	21.22 ± 0.13	20.48 ± 0.13	2.285 ± 0.037	1.69 ± 0.027	1.299 ± 0.021
x1 = 0.1	814.65 ± 0.45	805.66 ± 0.46	796.38 ± 0.48	22.23 ± 0.13	21.52 ± 0.13	20.8 ± 0.13	1.846 ± 0.03	1.429 ± 0.023	1.126 ± 0.018
x1 = 0.15	827.45 ± 0.43	818.26 ± 0.44	808.69 ± 0.46	22.53 ± 0.13	21.8 ± 0.13	21.1 ± 0.13	1.564 ± 0.025	1.237 ± 0.02	0.999 ± 0.017
x1 = 0.2	840.43 ± 0.41	831.03 ± 0.43	821.18 ± 0.44	22.85 ± 0.13	22.1 ± 0.13	21.42 ± 0.13	1.371 ± 0.022	1.099 ± 0.018	0.895 ± 0.015
x1 = 0.25	853.56 ± 0.39	843.97 ± 0.41	833.89 ± 0.42	23.2 ± 0.13	22.4 ± 0.13	21.7 ± 0.13	1.221 ± 0.02	0.992 ± 0.017	0.817 ± 0.014
x1 = 0.3001	866.86 ± 0.37	857.09 ± 0.39	846.77 ± 0.4	23.57 ± 0.13	22.75 ± 0.13	22 ± 0.13	1.105 ± 0.018	0.908 ± 0.016	0.756 ± 0.014
x1 = 0.35	880.33 ± 0.35	870.34 ± 0.37	859.8 ± 0.38	23.95 ± 0.13	23.12 ± 0.13	22.33 ± 0.13	1.012 ± 0.017	0.84 ± 0.015	0.706 ± 0.013
x1 = 0.4	893.96 ± 0.33	883.74 ± 0.35	873.01 ± 0.36	24.38 ± 0.13	23.5 ± 0.13	22.7 ± 0.13	0.934 ± 0.016	0.784 ± 0.014	0.667 ± 0.013
x1 = 0.45	907.75 ± 0.31	897.31 ± 0.33	886.41 ± 0.35	24.83 ± 0.13	23.93 ± 0.13	23.12 ± 0.13	0.874 ± 0.015	0.74 ± 0.013	0.637 ± 0.012
x1 = 0.5	921.7 ± 0.29	911.08 ± 0.31	899.98 ± 0.33	25.32 ± 0.13	24.42 ± 0.13	23.55 ± 0.13	0.823 ± 0.014	0.72 ± 0.013	0.609 ± 0.012
x1 = 0.55	935.82 ± 0.27	925.02 ± 0.29	913.73 ± 0.31	25.85 ± 0.14	24.92 ± 0.13	24.03 ± 0.13	0.779 ± 0.014	0.671 ± 0.013	0.586 ± 0.012
x1 = 0.6	950.11 ± 0.25	939.14 ± 0.27	927.66 ± 0.29	26.43 ± 0.14	25.48 ± 0.13	24.55 ± 0.13	0.745 ± 0.014	0.645 ± 0.012	0.568 ± 0.012
x1 = 0.65	964.58 ± 0.23	953.43 ± 0.25	941.79 ± 0.27	27.05 ± 0.14	26.1 ± 0.14	25.15 ± 0.13	0.719 ± 0.013	0.626 ± 0.012	0.555 ± 0.011
x1 = 0.7001	979.2 ± 0.21	967.87 ± 0.23	956.09 ± 0.25	27.75 ± 0.14	26.77 ± 0.14	25.8 ± 0.13	0.697 ± 0.013	0.611 ± 0.012	0.542 ± 0.011
x1 = 0.75	994.01 ± 0.19	982.51 ± 0.21	970.57 ± 0.23	28.57 ± 0.14	27.53 ± 0.14	26.5 ± 0.14	0.682 ± 0.013	0.599 ± 0.012	0.531 ± 0.011
x1 = 0.8	1009 ± 0.2	997.36 ± 0.19	985.26 ± 0.2	29.47 ± 0.14	28.38 ± 0.14	27.28 ± 0.14	0.671 ± 0.013	0.592 ± 0.012	0.525 ± 0.011
x1 = 0.85	1024.2 ± 0.22	1012.38 ± 0.2	1000.13 ± 0.18	30.5 ± 0.14	29.33 ± 0.14	28.1 ± 0.14	0.657 ± 0.013	0.587 ± 0.012	0.52 ± 0.011
x1 = 0.9	1039.61 ± 0.25	1027.67 ± 0.23	1015.21 ± 0.21	31.63 ± 0.15	30.37 ± 0.14	28.95 ± 0.14	0.636 ± 0.012	0.585 ± 0.012	0.519 ± 0.011
x1 = 0.95	1055.25 ± 0.27	1043.29 ± 0.25	1030.71 ± 0.23	32.95 ± 0.15	31.43 ± 0.15	29.82 ± 0.14	0.635 ± 0.012	0.587 ± 0.012	0.523 ± 0.011
x1 = 1	1071.24 ± 0.29	1059.29 ± 0.27	1046.85 ± 0.25	34.37 ± 0.15	32.55 ± 0.15	30.67 ± 0.14	0.667 ± 0.013	0.596 ± 0.012	0.535 ± 0.011
